Values quoted from earlier work as cited in US20220378756A1, “ACTIVATING PYRUVATE KINASE R” (FORMA Therapeutics, Inc., priority 2019, published 2022).
Like-named read-outs stand apart in the source and are kept apart here.

Experiments:
aromatase = molecular target: T1, aromatase (Homo sapiens, UniProt P11511); conditions: Yang et al. 2018; Grace et al. 2019; cited from earlier work
T1 sequence (P11511 1-503): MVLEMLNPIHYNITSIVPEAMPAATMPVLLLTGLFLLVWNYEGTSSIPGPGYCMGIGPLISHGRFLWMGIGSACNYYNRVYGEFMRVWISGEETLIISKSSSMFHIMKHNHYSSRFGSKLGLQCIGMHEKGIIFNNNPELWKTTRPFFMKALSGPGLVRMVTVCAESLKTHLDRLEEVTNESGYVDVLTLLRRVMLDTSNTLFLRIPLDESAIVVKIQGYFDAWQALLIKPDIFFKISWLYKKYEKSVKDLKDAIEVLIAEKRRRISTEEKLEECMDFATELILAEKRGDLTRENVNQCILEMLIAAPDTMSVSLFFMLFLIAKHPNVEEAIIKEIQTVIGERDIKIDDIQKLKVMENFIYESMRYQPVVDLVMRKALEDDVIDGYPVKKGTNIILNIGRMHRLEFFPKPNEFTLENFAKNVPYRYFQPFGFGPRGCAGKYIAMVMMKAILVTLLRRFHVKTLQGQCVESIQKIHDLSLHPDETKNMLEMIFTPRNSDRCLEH

[1] = cited from earlier work

| Compound | aromatase inhibition (aromatase) | AUC increase with high-fat, high-calorie meal vs fasted ([1]; plasma) [%] | Cmax increase with high-fat, high-calorie meal vs fasted ([1]; plasma) [%] | steady state AUC higher in HbSC vs HbSS genotype patients ([1]; plasma) [%] | steady state Cmax higher in HbSC vs HbSS genotype patients ([1]; plasma) [%] | AUC increase with high-fat, high-calorie meal vs fasted ([1]; whole blood) [%] | Cmax increase with high-fat, high-calorie meal vs fasted ([1]; whole blood) [%] | steady state AUC higher in HbSC (n=11) vs HbSS (n=220) genotype patients ([1]; whole blood) [%] | steady state Cmax higher in HbSC (n=11) vs HbSS (n=220) genotype patients ([1]; whole blood) [%] |
| --- | --- | --- | --- | --- | --- | --- | --- | --- | --- |
| O=C(c1ccc(NS(=O)(=O)c2cccc3cccnc23)cc1)N1CCN(CC2CC2)CC1 [AG-348] | Aromatase inhibition has been observed |  |  |  |  |  |  |  |  |
| CC(C)n1nccc1-c1ncccc1COc1cccc(O)c1C=O [voxelotor, 2-hydroxy-6-((2-(1-isopropyl-1H-pyrazol-5-yl)pyridin-3-yl)methoxy)benzaldehyde] |  | 42 | 95 | 23 | 15 | 42 | 45 | 50 | 45 |
